Data on 51 compounds can be found in patent publication US20250270180A1, “MEK INHIBITORS AND THERAPEUTIC USES THEREOF” (Immuneering Corporation, priority 2020, published 2025).

In assay [1] the test system is A549 CRAF BP (MEK phosphorylation). Kind of assay: A549-CRAF BP 100 nM, 2 h (pMEK). To be noted: Homo sapiens, A549, 2 h, phospho:total ratio normalized to DMSO control. It is filed as cell-based. On the procedure: (§1) A549 or […] cells were treated in duplicate for two hours with compounds at varying concentrations. After two hours, the cells were lysed, snap frozen, and stored at −80° C. After storage, the lysate was quantified with the Bradford assay. Before the lysates were prepared to run on the Jess, the lysates were diluted to 1 mg/mL for pERK analysis and 1.5 mg/mL pMEK analysis using quantitative Western blotting. ERK and MEK phosphorylation levels were estimated by taking the ratio of phospho-protein to total protein and normalizing to the DMSO control. The results of this study are described in Tables 14-16.

A further assay relates to A549 pERK. Kind of assay: A549-pERK, 2 h (quantitative Western, Jess). The assay is classed as cell-based. To be noted: Homo sapiens, phospho:total ratio normalized to DMSO control. On the procedure:
as §1

With `CNS(=O)(=O)Nc1cccc(Cc2c(CN3CCNCC3)c3cc(Cl)c(OC(=O)N(C)C)cc3oc2=O)c1F` [Compound 21], the activity at 0.1 µM in assay [1] amounted to 47.9%. Also, the activity at 0.01 µM with A549 pERK (A549, 2 h, 10 nM) stood at 20.4%.
The corresponding values for `CNS(=O)(=O)Nc1cccc(Cc2c(CN(C)C)c3cc(Cl)c(OC(=O)N(C)C)cc3oc2=O)c1F` [Compound 24] are 55.9% and 42.4%.
In the same order, the values of `CNS(=O)(=O)Nc1cccc(Cc2c(CN(C)C)c3cc(F)c(OC(=O)N(C)C)cc3oc2=O)c1F` [Compound 25] are 71% and 66.2%.
In the same order, the values of `CNS(=O)(=O)Nc1cccc(Cc2c(CNCC#N)c3ccc(OC(=O)N(C)C)cc3oc2=O)c1F` [Compound 33] are 51.4% and 55.4%.
Take `CCN(CC)Cc1c(Cc2cccc(NS(=O)(=O)NC)c2F)c(=O)oc2cc(OC(=O)N(C)C)ccc12` [Compound 73]: the activity at 0.1 µM in assay [1] amounted to 33.9%. Further, the activity at 0.01 µM in the assay on A549 pERK (A549, 2 h, 10 nM) came out at 77.7%.
In the case of `CNS(=O)(=O)Nc1cccc(Cc2c(CN3CC(OC)C3)c3ccc(OC(=O)N(C)C)cc3oc2=O)c1F` [Compound 74], in assay [1], the activity at 0.1 µM came out at 59.2%. In addition, the activity at 0.01 µM with A549 pERK (A549, 2 h, 10 nM) stood at 75.3%.
Turning to `CNS(=O)(=O)Nc1cccc(Cc2c(CNCC(F)(F)F)c3ccc(OC(=O)N(C)C)cc3oc2=O)c1F` [Compound 75], the activity at 0.1 µM in assay [1] was determined as 66.5%.
Consider `CNS(=O)(=O)Nc1cccc(Cc2c(CN(C)CC(C)C)c3ccc(OC(=O)N(C)C)cc3oc2=O)c1F` [Compound 78], for which the activity at 0.1 µM in assay [1] is 64.2%. For the same compound, the activity at 0.01 µM in the assay with A549 pERK (A549, 2 h, 10 nM) came to 78.6%.
For `CNS(=O)(=O)Nc1cccc(Cc2c(CN(C)c3ccccc3)c3ccc(OC(=O)N(C)C)cc3oc2=O)c1F` [Compound 79], in assay [1], the activity at 0.1 µM worked out at 45.2%.
Consider `CNS(=O)(=O)Nc1cccc(Cc2c(CNC(N)=O)c3ccc(OC(=O)N(C)C)cc3oc2=O)c1F` [Compound 105], for which the activity at 10 µM with A549 pERK (A549, 2 h) was 7.39%.
`CCS(=O)(=O)Nc1cccc(Cc2c(CN(C)C)c3ccc(OC(=O)N(C)C)cc3oc2=O)c1F` [Compound 120]: the activity at 0.01 µM with A549 pERK (A549, 2 h, 10 nM) came out at 77.2%.
Take `CNS(=O)(=O)Nc1nccc(Cc2c(CN(C)C)c3ccc(OC(=O)N(C)C)cc3oc2=O)c1F` [Compound 124]: the activity at 0.01 µM in the assay on A549 pERK (A549, 2 h, 10 nM) was found to be 94.6%.
On the same count and under the same terms, the figure for `CNS(=O)(=O)Nc1cccc(Cc2c(CN(C)C)c3ccc(OC(=O)N4CCN(C)CC4)cc3oc2=O)c1F` [Compound 127] is 110%.
Regarding `CNS(=O)(=O)Nc1cccc(Cc2c(CN(C)C)c3ccc(Oc4ncccn4)cc3oc2=O)c1F` [Compound 129], the activity at 0.01 µM in the assay with A549 pERK (A549, 10 nM) was found to be 92.2%.
As for `CNS(=O)(=O)Nc1cccc(Cc2c(CNCC(=O)O)c3cc(Cl)c(OC(=O)N(C)C)cc3oc2=O)c1F` [Compound 133], the activity at 0.01 µM in the assay on A549 pERK (A549, 2 h, 10 nM) was found to be 88.1%. Also, in the assay on A549 pERK (A549, 2 h), the activity at 10 µM amounted to 23.4%.
As for `CNS(=O)(=O)Nc1cccc(Cc2c(CN3CC4CC3CN4)c3ccc(OC(=O)N(C)C)cc3oc2=O)c1F` (stereo not drawn) [Compound 138], in the assay on A549 pERK (A549, 2 h, 10 nM), the activity at 0.01 µM was 96.9%.
The same measure, in the same setting: to `CNS(=O)(=O)Nc1cccc(Cc2c(CN3CC(C)C3)c3ccc(OC(=O)N(C)C)cc3oc2=O)c1F` [Compound 142] belongs 94.6%; to `CNS(=O)(=O)Nc1cccc(Cc2c(CN3CC(C)(C)C3)c3ccc(OC(=O)N(C)C)cc3oc2=O)c1F` [Compound 143], 104%.
Still for that read-out and setting: to `CNS(=O)(=O)Nc1cccc(Cc2c(CN3CC(Cl)C3)c3ccc(OC(=O)N(C)C)cc3oc2=O)c1F` [Compound 145] belongs 104%.
Same read-out and setting: the figure for `CNS(=O)(=O)Nc1nccc(Cc2c(CN3CC(F)(F)C3)c3ccc(OC(=O)N(C)C)cc3oc2=O)c1F` [Compound 149] is 69.1%.
For `CNS(=O)(=O)Nc1cccc(Cc2c(CN3CC4(COC4)C3)c3ccc(OC(=O)N(C)C)cc3oc2=O)c1F` [Compound 152], the activity at 0.01 µM with A549 pERK (A549, 2 h, 10 nM) stood at 70.5%.
Still for that read-out and setting: the figure for `CNS(=O)(=O)Nc1cccc(Cc2c(CN3CC(N(C)C)C3)c3ccc(OC(=O)N(C)C)cc3oc2=O)c1F` [Compound 154] is 64%; for `CN(C)C(=O)Oc1ccc2c(CN3CCC3)c(Cc3ccnc(NS(=O)(=O)C4CC4)c3F)c(=O)oc2c1` [Compound 155] it is 84.9%.
As to `CNS(=O)(=O)Nc1cccc(Cc2c(CN3CCNC(=O)CC3)c3ccc(OC(=O)N(C)C)cc3oc2=O)c1F` [Compound 158], the activity at 0.01 µM in the assay on A549 pERK (A549, 2 h, 10 nM) was determined as 80%.
The same measure, in the same setting: to `CNS(=O)(=O)Nc1cccc(Cc2c(CN3CCC4(CN(C)C4)C3)c3ccc(OC(=O)N(C)C)cc3oc2=O)c1F` [Compound 159] belongs 82.7%; to `CNC1CN(Cc2c(Cc3cccc(NS(=O)(=O)NC)c3F)c(=O)oc3cc(OC(=O)N(C)C)ccc23)C1` [Compound 164], 102%.
The same measure, in the same setting: the figure for `CNS(=O)(=O)Nc1cccc(Cc2c(CN3CC(N)C3)c3ccc(OC(=O)N(C)C)cc3oc2=O)c1F` [Compound 165] is 104%; for `CCN(C)Cc1c(Cc2cccc(NS(=O)(=O)CC)c2F)c(=O)oc2cc(OC(=O)N(C)C)c(Cl)cc12` [Compound 166] it is 60.9%; for `CNS(=O)(=O)Nc1cccc(Cc2c(CN3CC(C#N)C3)c3ccc(OC(=O)N(C)C)cc3oc2=O)c1F` [Compound 172] it is 111%.
The same measure, in the same setting: to `CNS(=O)(=O)Nc1cccc(Cc2c(CN3CC(C(N)=O)C3)c3ccc(OC(=O)N(C)C)cc3oc2=O)c1F` [Compound 173] belongs 97.7%.
As to `CNS(=O)(=O)Nc1cccc(Cc2c(CO)c3ccc(OC(=O)N(C)C)cc3oc2=O)c1F` [Compound 180], the activity at 0.01 µM with A549 pERK (A549, 2 h, 10 nM) was 75%.
Turning to `CNS(=O)(=O)Nc1cccc(Cc2c(CN3CCOCC3=O)c3ccc(OC(=O)N(C)C)cc3oc2=O)c1F` [Compound 181], the activity at 0.01 µM with A549 pERK (A549, 2 h, 10 nM) is 100%. In addition, the activity at 10 µM in the assay with A549 pERK (A549, 2 h) came to 22.2%.
As for `CNS(=O)(=O)Nc1cccc(Cc2c(CCNCC3CC3)c3ccc(OC(=O)N(C)C)cc3oc2=O)c1F` [Compound 186], the activity at 0.01 µM with A549 pERK (A549, 2 h, 10 nM) was 80.1%. The activity at 10 µM in the assay on A549 pERK (A549, 2 h) stood at 0.74%.
Regarding `CNS(=O)(=O)Nc1cccc(Cc2c(CNc3ccc(OC)nc3)c3ccc(OC(=O)N(C)C)cc3oc2=O)c1F` [Compound 193], in the assay with A549 pERK (A549, 2 h, 10 nM), the activity at 0.01 µM came to 90.7%.
The same measure, in the same setting: the figure for `CNS(=O)(=O)Nc1cccc(Cc2c(CC(=O)N3CCN(C)CC3)c3ccc(OC(=O)N(C)C)cc3oc2=O)c1F` [Compound 195] is 113%; for `CNS(=O)(=O)Nc1cccc(Cc2c(CC(=O)N(C)C)c3ccc(OC(=O)N(C)C)cc3oc2=O)c1F` [Compound 196] it is 106%.
For the compound `CNS(=O)(=O)Nc1cccc(Cc2c(CC(=O)N(C)CC#N)c3ccc(OC(=O)N(C)C)cc3oc2=O)c1F` [Compound 198], the activity at 0.01 µM in the assay with A549 pERK (A549, 2 h, 10 nM) was 109%.
On the same count and under the same terms, the figure for `CNS(=O)(=O)Nc1cccc(Cc2c(CC(=O)Nc3ccon3)c3ccc(OC(=O)N(C)C)cc3oc2=O)c1F` [Compound 201] is 119%; for `CNS(=O)(=O)Nc1cccc(Cc2c(CC(=O)Nc3ccn[nH]3)c3ccc(OC(=O)N(C)C)cc3oc2=O)c1F` [Compound 202] it is 119%.
For `CNS(=O)(=O)Nc1cccc(Cc2c(CN(C)C)c3ccc(OC(=S)N(C)C)cc3oc2=O)c1F` [Compound 204], the activity at 0.01 µM in the assay with A549 pERK (A549, 10 nM) was 83.4%.
In the case of `CCC(=O)NCc1c(Cc2cccc(NS(=O)(=O)NC)c2F)c(=O)oc2cc(OC(=O)N(C)C)ccc12` [Compound 207], in the assay with A549 pERK (A549, 2 h, 10 nM), the activity at 0.01 µM worked out at 97.4%. Moreover, in the assay on A549 pERK (A549, 2 h), the activity at 10 µM is 11.3%.
The corresponding values for `CNS(=O)(=O)Nc1cccc(Cc2c(CNC(=O)C(C)C)c3ccc(OC(=O)N(C)C)cc3oc2=O)c1F` [Compound 208] are 105% and 23.6%.
The corresponding values for `CNS(=O)(=O)Nc1cccc(Cc2c(CNC(=O)c3c[nH]nn3)c3ccc(OC(=O)N(C)C)cc3oc2=O)c1F` [Compound 211] are 121% and 70.8%.
In the same order, the values of `CNS(=O)(=O)Nc1cccc(Cc2c(CNC(=O)C(C)(C)O)c3ccc(OC(=O)N(C)C)cc3oc2=O)c1F` [Compound 212] are 100% and 13%.
Consider `CNS(=O)(=O)Nc1cccc(Cc2c(CNC(=O)c3nn[nH]n3)c3ccc(OC(=O)N(C)C)cc3oc2=O)c1F` [Compound 213], for which the activity at 0.01 µM with A549 pERK (A549, 2 h, 10 nM) stood at 100%. Also, the activity at 10 µM in the assay with A549 pERK (A549, 2 h) stood at 70.1%.
The corresponding values for `CNS(=O)(=O)Nc1cccc(Cc2c(CC(=O)NC3CCOCC3)c3ccc(OC(=O)N(C)C)cc3oc2=O)c1F` [Compound 215] are 100% and 11.8%.
The corresponding values for `CNS(=O)(=O)Nc1cccc(Cc2c(CC(=O)N3CC(OC)C3)c3ccc(OC(=O)N(C)C)cc3oc2=O)c1F` [Compound 216] are 89.5% and 4.51%.
In the same order, the values of `CNS(=O)(=O)Nc1cccc(Cc2c(CNCC(=O)N(C)CC#N)c3ccc(OC(=O)N(C)C)cc3oc2=O)c1F` [Compound 217] are 96.7% and 11.2%.
As to `C#CCNC(=O)CNCc1c(Cc2cccc(NS(=O)(=O)NC)c2F)c(=O)oc2cc(OC(=O)N(C)C)ccc12` [Compound 218], in the assay on A549 pERK (A549, 2 h, 10 nM), the activity at 0.01 µM was 113%. In addition, the activity at 10 µM in the assay with A549 pERK (A549, 2 h) was found to be 9.46%.
The corresponding values for `CNS(=O)(=O)Nc1cccc(Cc2c(CNCC(=O)N(C)c3ccccc3)c3ccc(OC(=O)N(C)C)cc3oc2=O)c1F` [Compound 220] are 109% and 4.28%.
The corresponding values for `CNS(=O)(=O)Nc1cccc(Cc2c(CNCC(=O)Nc3ccccc3)c3ccc(OC(=O)N(C)C)cc3oc2=O)c1F` [Compound 223] are 119% and 3.04%.
